35 molecules from ChEMBL document CHEMBL2331278, “Synthesis, pharmacological evaluation and QSAR modeling of mono-substituted 4-phenylpiperidines and 4-phenylpiperazines” (Eur J Med Chem, 2013) can be followed below.

Some results are limits rather than exact numbers.

The target in one experiment is D(2) dopamine receptor (Homo sapiens, UniProt P14416). The experiment in a line: Displacement of [3H]7-OH-DPAT from human D2S receptor high affinity site expressed in HEK293 cells. Format: cell-based.
D(2) dopamine receptor, sequence (P14416 whole entry): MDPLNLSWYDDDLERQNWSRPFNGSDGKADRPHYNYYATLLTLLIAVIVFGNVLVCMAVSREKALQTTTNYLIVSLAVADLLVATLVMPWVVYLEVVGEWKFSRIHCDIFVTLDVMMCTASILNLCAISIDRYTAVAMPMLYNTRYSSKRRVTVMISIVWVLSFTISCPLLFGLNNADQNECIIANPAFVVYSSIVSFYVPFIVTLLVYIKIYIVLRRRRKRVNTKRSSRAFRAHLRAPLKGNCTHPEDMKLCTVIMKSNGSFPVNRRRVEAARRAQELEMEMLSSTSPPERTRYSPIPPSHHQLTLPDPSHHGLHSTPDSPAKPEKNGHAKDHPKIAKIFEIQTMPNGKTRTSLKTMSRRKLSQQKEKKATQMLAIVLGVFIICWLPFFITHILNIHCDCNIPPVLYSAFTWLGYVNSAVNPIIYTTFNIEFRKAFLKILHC
Experiment [1] concerns Rattus norvegicus. The experiment in a line: Reduction in DOPAC level in Sprague-Dawley rat striatum at 100 umol/kg, sc measured after 1 hr relative to control. Format: functional.
The test system of experiment [2] is Rattus norvegicus. Kind of experiment: Reduction in DOPAC level in Sprague-Dawley rat striatum at 33 umol/kg, sc measured after 1 hr relative to control. It is filed as functional. Also noted: scale not given: the % may be the effect or the level left.
Experiment [3] has as its target T1, Amine oxidase [flavin-containing] A (Rattus norvegicus, UniProt P21396).
T1 sequence (P21396 whole entry): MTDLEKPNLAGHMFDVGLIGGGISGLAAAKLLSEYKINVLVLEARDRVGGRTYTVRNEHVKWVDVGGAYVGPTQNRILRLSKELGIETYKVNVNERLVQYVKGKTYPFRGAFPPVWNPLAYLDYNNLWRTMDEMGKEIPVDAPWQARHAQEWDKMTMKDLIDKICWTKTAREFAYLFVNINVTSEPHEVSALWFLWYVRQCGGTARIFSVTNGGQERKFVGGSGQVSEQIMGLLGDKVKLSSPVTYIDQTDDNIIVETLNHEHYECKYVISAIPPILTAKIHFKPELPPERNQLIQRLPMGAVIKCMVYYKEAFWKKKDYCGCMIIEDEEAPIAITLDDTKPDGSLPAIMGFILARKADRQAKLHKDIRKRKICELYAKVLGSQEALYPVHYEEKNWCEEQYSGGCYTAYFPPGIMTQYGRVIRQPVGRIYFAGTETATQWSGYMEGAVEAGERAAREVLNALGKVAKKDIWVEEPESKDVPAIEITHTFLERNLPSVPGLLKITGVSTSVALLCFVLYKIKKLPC
Kind of experiment: Displacement of [3H]Ro 41-1049 from rat MAO-A receptor expressed in HEK293 cells. Format: cell-based. For orientation: Loss of bound radioactivity is the signal in a displacement assay; it reports binding, not function.

In experiment [4] the test system is Rattus norvegicus. Kind of experiment: Reduction in DOPAC level in Sprague-Dawley rat striatum at 50 umol/kg, sc measured after 1 hr relative to control. Format: functional. Details: scale not given: the % may be the effect or the level left.

For the molecule `CCCN1CCN(c2ccccc2)CC1`, the Ki on D(2) dopamine receptor is 0.47 µM. Further, in the experiment on Rattus norvegicus [1], the “DOPAC level (% of control)” value came out at 181%.

Turning to `CCCN1CCC(c2ccccc2)CC1`, the Ki on D(2) dopamine receptor was determined as 0.17 µM. Further, in the experiment on Rattus norvegicus [1], the “DOPAC level (% of control)” value came out at 131%.

`CCCN1CCC(c2ccc(Cl)cc2)CC1`: the Ki on D(2) dopamine receptor was determined as 0.9 µM.

`CCCN1CCC(c2ccc(OC)cc2)CC1` had a Ki on D(2) dopamine receptor of 23 µM.

For the molecule `CCCN1CCC(c2cccc(S(=O)(=O)C(C)C)c2)CC1`, the “DOPAC level (% of control)” value in the experiment on Rattus norvegicus [1] is on record as 205%.

Turning to `CCCN1CCC(c2cccc(C)c2)CC1`, the “DOPAC level (% of control)” value in the experiment on Rattus norvegicus [1] came out at 115%.

`CCCN1CCC(c2cccc(S(=O)(=O)C(F)(F)F)c2)CC1`: the “DOPAC level (% of control)” value in the experiment on Rattus norvegicus [1] amounted to 258%.

With `CCCN1CCC(c2ccccc2OC)CC1`, the Activity with Rattus norvegicus [2] stood at 277%. The results for the Ki (at D(2) dopamine receptor; in experiment [3] (read-out: Ki)) were 0.012 µM and 2.4 µM, respectively.

In the case of `CCCN1CCC(c2ccccc2C(F)(F)F)CC1`, the “DOPAC level (% of control)” value in the experiment on Rattus norvegicus [1] is 254%.

`CCCN1CCN(c2ccccc2S(C)(=O)=O)CC1`: the values for the Ki (at D(2) dopamine receptor; in experiment [3] (read-out: Ki); in experiment [3] (read-out: pKi (converted))) were 0.58 µM, > 583 µM and > 631 µM, respectively. The “DOPAC level (% of control)” value with Rattus norvegicus [1] turned out to be 283%.

Turning to `CCCN1CCC(c2ccccc2OS(=O)(=O)C(F)(F)F)CC1`, in the experiment with Rattus norvegicus [1], the “DOPAC level (% of control)” value came to 270%.

For the molecule `CCCN1CCC(c2cccc(OC)c2)CC1`, the Ki on D(2) dopamine receptor turned out to be 1.5 µM; in experiment [3] (read-out: Ki), 18 µM. Also, in the experiment with Rattus norvegicus [1], the “DOPAC level (% of control)” value turned out to be 140%.

Regarding `CCCN1CCC(c2cccc(C(F)(F)F)c2)CC1`, the Ki worked out at 0.18 µM on D(2) dopamine receptor and 128 µM in experiment [3] (read-out: Ki). The “DOPAC level (% of control)” value in the experiment with Rattus norvegicus [1] is 260%.

Consider `CCCN1CCC(c2cccc(C#N)c2)CC1`, for which the “DOPAC level (% of control)” value with Rattus norvegicus [1] is given as 275%.

Regarding `CCCN1CCN(c2cccc(OS(=O)(=O)C(F)(F)F)c2)CC1`, the “DOPAC level (% of control)” value in the experiment on Rattus norvegicus [1] was 285%.

With `CCCN1CCC(c2cccc(OS(=O)(=O)C(F)(F)F)c2)CC1`, the “DOPAC level (% of control)” value in the experiment on Rattus norvegicus [1] worked out at 241%.

Take `CCCN1CCC(c2cccc(S(=O)(=O)C3CCCC3)c2)CC1`: the Ki was 3.8 µM on D(2) dopamine receptor, > 583 µM in experiment [3] (read-out: Ki) and > 631 µM in experiment [3] (read-out: pKi (converted)). In addition, the “DOPAC level (% of control)” value with Rattus norvegicus [1] came to 170%.

As to `CCCN1CCN(c2cccc(S(=O)(=O)c3ccccc3)c2)CC1`, the “DOPAC level (% of control)” value with Rattus norvegicus [1] is on record as 152%.

Consider `CCCN1CCN(c2cccc(C(C)=O)c2)CC1`, for which, in the experiment on Rattus norvegicus [1], the “DOPAC level (% of control)” value turned out to be 221%.

Consider `CCCN1CCC(c2cccc(OC(C)C)c2)CC1`, for which the “DOPAC level (% of control)” value in the experiment on Rattus norvegicus [1] is 112%.

With `CCCN1CCC(c2cccc(N3CCOCC3)c2)CC1`, the “DOPAC level (% of control)” value in the experiment on Rattus norvegicus [1] came to 105%.

With `CCCN1CCN(c2cccc(OS(C)(=O)=O)c2)CC1`, the Activity in the experiment with Rattus norvegicus [4] is listed as 254%.

On to `CCCN1CCC(c2cccc(OC(C)(C)C)c2)CC1`, for which, in the experiment with Rattus norvegicus [1], the “DOPAC level (% of control)” value turned out to be 196%.

As to `CCCN1CCN(c2cccc(Cl)c2)CC1`, the “DOPAC level (% of control)” value in the experiment on Rattus norvegicus [1] is listed as 250%.

`CCCN1CCN(c2ccccc2C#N)CC1` showed an Activity with Rattus norvegicus [2] of 313%.

Regarding `CCCN1CCN(c2cccc(O)c2)CC1`, the Ki in experiment [3] (read-out: Ki) was > 583 µM; in experiment [3] (read-out: pKi (converted)), > 631 µM.

`CCCN1CCN(c2ccc(OC)cc2)CC1`: at D(2) dopamine receptor, the Ki came to 6.4 µM.

With `CCCN1CCN(c2cccc(OC)c2)CC1`, the Ki on D(2) dopamine receptor came to 0.3 µM; in experiment [3] (read-out: Ki), 16 µM. Moreover, in the experiment on Rattus norvegicus [1], the “DOPAC level (% of control)” value came to 255%.

As to `CCCN1CCN(c2ccccc2C)CC1`, the “DOPAC level (% of control)” value in the experiment with Rattus norvegicus [1] is recorded as 327%.

Turning to `CCCN1CCN(c2ccccc2Cl)CC1`, in the experiment on Rattus norvegicus [1], the “DOPAC level (% of control)” value came to 368%.

As to `CCCN1CCN(c2cccc(C#N)c2)CC1`, the Ki is 0.27 µM at D(2) dopamine receptor, > 583 µM in experiment [3] (read-out: Ki) and > 631 µM in experiment [3] (read-out: pKi (converted)). For the same molecule, in the experiment on Rattus norvegicus [1], the “DOPAC level (% of control)” value amounted to 314%.

For the molecule `CCCN1CCN(c2ccccc2O)CC1`, the “DOPAC level (% of control)” value with Rattus norvegicus [1] amounted to 270%.

Turning to `CCCN1CCN(c2cccc(C(F)(F)F)c2)CC1`, in the experiment with Rattus norvegicus [4], the Activity was determined as 315%.

With `CCCN1CCN(c2cccc(S(C)(=O)=O)c2)CC1`, the Ki in experiment [3] (read-out: Ki) amounted to 126 µM.

Turning to `CCCN1CCN(c2ccccc2OC)CC1`, the Ki on D(2) dopamine receptor is 0.022 µM; in experiment [3] (read-out: Ki) it was > 583 µM; in experiment [3] (read-out: pKi (converted)) it was > 631 µM. In addition, the “DOPAC level (% of control)” value in the experiment on Rattus norvegicus [1] came to 370%.
